Tests used:
souris [1] = assay: Phenylbenzoquinone test (analgesic activity), protocol of Siegmund; format: in vivo; conditions: ip, mouse, i.p., read-out: Propriétés analgésiques DE 50
[2] = Acute toxicity (DL 50) in mice; conditions: in vivo, ip, mouse, i.p., read-out: DL 50 souris
Excerpt: Pour illustrer l'invention, on a rassemblé dans le tableau III ci-après les résultats obtenus dans ces deux tests avec quelques composés selon l'invention. Ce tableau donne en outre la toxicité aiguë (DL 50) des composés testés.

souris [3] = assay: Antagonism of reserpine-induced ptosis (antidepressant activity), protocol of Gouret and Thomas; format: in vivo; conditions: ip, 1 h; mouse, i.p.; ptosis observed one hour after reserpine 2 mg/kg i.v.; read-out: Propriétés antidépressives DE 50
Procedure: L'activité antidépressive a quant à elle été mise en évidence chez la souris par le test de l'antagonisme vis-à-vis du ptosis observé une heure après une injection intraveineuse (2 mg/kg) de réserpine chez la souris selon le protocole décrit par C.

| SMILES | ED50 (souris [1]) [mg/kg] | LD50 [2] [mg/kg] | ED50 (souris [3]) [mg/kg] |
| --- | --- | --- | --- |
| CN(C)Cc1cc(-c2ccccc2)c2ccccc2c1 [Numéro de code 2, chlorhydrate de N,N-diméthylaminométhyl-2 phényl-4 naphtalène] | 4.5 | 70 | 5.3 |
| NCCc1cc(-c2ccccc2)c2ccccc2c1 [Numéro de code 9, chlorhydrate de l'(amino-2) éthyl-2 phényl-4 naphtalène] | 2.2 | 58 | 3 |

Reference: patent publication EP0100257A2, “Aminoalkyl naphthalene derivatives, their salts, process for their preparation and the therapeutical use of these derivatives and salts” (DELALANDE S.A., priority 1982, dated 1984)
